How the values were obtained:
[1] = test system: mustard beetle (Phaedon cochleariae); assay: Phaedon test (PHAECO spray treatment), Example 16; type: in vivo; conditions: china cabbage leaf discs sprayed, after the desired time; for efficacy in % / pest or weed control at 500 g/ha: application rate 500 g/ha
Description: Phaedon Test (PHAECO Spray Treatment)
(§1) • Solvent: 78.0 parts by weight of acetone • 1.5 parts by weight of dimethylformamide • Emulsifier: 0.5 part by weight of alkylaryl polyglycol ether
To prepare an appropriate active ingredient formulation, 1 part by weight of active ingredient is mixed with the stated amounts of solvent and emulsifier, and the concentrate is diluted with emulsifier-containing water to the desired concentration. […]
After the desired time, the efficacy in % is determined. 100% means that all beetle larvae were killed; 0% means that no beetle larvae were killed.

[2] = logP by HPLC on reverse-phase column (EEC Directive 79/831 Annex V.A8); type: physicochemical; conditions: for chromatographic logP: reverse-phase C18 HPLC column, pH 2.7, HPLC
Description: The logP values reported in the above Tables and Preparation Examples were determined according to EEC Directive 79/831 Annex V.A8 by HPLC (High Performance Liquid Chromatography) on a reverse-phase column (C18). Temperature 43° C.

[3] = test system: armyworm (Spodoptera frugiperda); assay: Spodoptera frugiperda test (SPODFR spray treatment), Example 15; type: in vivo; conditions: application rate 500 g/ha, maize leaf discs sprayed, after 7 days; for pest or weed control at 500 g/ha: Spodoptera frugiperda, foliar, 168 h, read-out: efficacy in %
Outline: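 Maize leaf discs sprayed with active ingredient in acetone/DMF with alkylaryl polyglycol ether emulsifier, diluted in water, then populated with caterpillars after drying. Efficacy in % after 7 days: 100% all caterpillars killed, 0% none.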

[4] = test system: mustard beetle (Phaedon cochleariae); assay: Phaedon test (PHAECO spray treatment), Example 7; type: in vivo; conditions: application rate 20 g/ha, china cabbage leaf discs sprayed, after 7 days
Outline: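 Spray formulation (acetone/DMF with alkylaryl polyglycol ether, diluted in emulsifier-containing water) applied to Chinese cabbage leaf discs, which were dried and then stocked with mustard beetle larvae. Efficacy scored at 7 days as % larvae killed (100% all, 0% none).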

[5] = test system: red spider mite (Tetranychus urticae); assay: Tetranychus test, OP-resistant (TETRUR spray treatment), Example 8; type: in vivo; conditions: application rate 20 g/ha, common bean leaf discs sprayed, after 6 days
Description: Tetranychus Test, OP-resistant (TETRUR Spray Treatment)
as §1
To prepare an active ingredient formulation, 1 part by weight of active ingredient is mixed with the stated amounts of solvent and emulsifier, and the concentrate is diluted with emulsifier-containing water to the desired concentration.
Leaf discs from the common bean (Phaseolus vulgaris) infested by all stages of the red spider mite (Tetranychus urticae) are sprayed with an active ingredient formulation of the desired concentration.
After 6 days, the efficacy in % is determined. 100% means that all spider mites were killed; 0% means that no spider mites were killed.

[6] = test system: green peach aphid (Myzus persicae); assay: Myzus test (MYZUPE spray treatment), Example 17; type: in vivo; conditions: application rate 500 g/ha, china cabbage leaf discs sprayed, after 6 days
Description: Myzus Test (MYZUPE Spray Treatment)
• Solvent: 78 parts by weight of acetone • 1.5 parts by weight of dimethylformamide • Emulsifier: 0.5 part by weight of alkylaryl polyglycol ether
To prepare an appropriate active ingredient formulation, 1 part by weight of active ingredient is mixed with the stated amounts of solvent and emulsifier, and the concentrate is diluted with emulsifier-containing water to the desired concentration. Leaf discs from china cabbage (Brassica pekinensis) infested by all stages of the green peach aphid (Myzus persicae) are sprayed with an active ingredient formulation of the desired concentration.
After 6 days, the efficacy in % is determined. 100% means that all aphids were killed; 0% means that no aphids were killed.

[7] = test system: Boophilus microplus; assay: Boophilus microplus test (BOOPMI injection), Example 11; type: in vivo; conditions: application rate 20 μg/animal, injected into abdomen, after 7 days
Outline: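 Adult ticks injected in the abdomen with compound diluted in DMSO, then held in a climate-controlled room. Efficacy in % determined after 7 days from fertile eggs laid; 100% means no tick laid fertile eggs.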

[8] = Phaedon cochleariae, foliar, read-out: efficacy in %
[9] = C18 reverse phase, 43° C., acidic range pH 2.7, calibration with alkan-2-ones
[10] = HPLC, C18 reverse phase, 43° C., acidic range pH 2.7, calibration with alkan-2-ones

| Structure (SMILES) | logP ([2]; HPLC-MS) | efficacy in % [4] [%] | efficacy in % [5] [%] | further results |
| --- | --- | --- | --- | --- |
| O=C(/C=C/c1ccc(NC(=O)C2CC2)cc1)NC(c1cc(Cl)cc(Cl)c1)C(F)(F)F (stereo not shown) [Ia-1] | HPLC-MS: logP = 3.77; mass |  |  | efficacy in % [1]: 83% |
| N#Cc1cc(/C=C/C(=O)NC(c2ccc(Cl)c(Cl)c2)C(F)(F)F)ccc1-n1cncn1 (stereo not shown) [Ia-17] |  |  |  | pest or weed control at 500 g/ha [3]: 100%; pest or weed control at 500 g/ha [1, 8]: 100%; chromatographic logP [2, 9]: 3.22 |
| Cc1cc(/C=C/C(=O)NC(c2cccc(C(F)(F)F)c2)C(F)(F)F)ccc1C(=O)O (stereo not shown) [Ia-27] | HPLC-MS: logP = 3.14; mass |  |  | efficacy in % [1]: 83% |
| O=C(/C=C/c1ccc(C(=O)NCCOCC(F)(F)F)c(C(F)(F)F)c1)NC(c1cccc(C(F)(F)F)c1)C(F)(F)F (stereo not shown) [Ia-47] | HPLC-MS: logP = 3.58; mass | 100 | 90 | efficacy in % [3]: 83% |
| COC(C)(C)NC(=O)c1ccc(/C=C/C(=O)NC(c2cccc(C(F)(F)F)c2)C(F)(F)F)cc1C(F)(F)F (stereo not shown) [Ia-55] | HPLC-MS: logP = 3.37; mass |  | 100 | efficacy in % [3]: 83%; efficacy in % [6]: 90% |
| CC(NC(=O)c1ccc(/C=C/C(=O)NC(c2cccc(C(F)(F)F)c2)C(F)(F)F)cc1C(F)(F)F)C1CC1 (stereo not shown) [Ia-56] | HPLC-MS: logP = 3.77; mass | 100 | 100 | efficacy in % [3]: 83% |
| O=C(/C=C/c1ccc(C(=O)NC2COC2)c(C(F)(F)F)c1)NC(c1cccc(C(F)(F)F)c1)C(F)(F)F (stereo not shown) [Ia-59] | HPLC MS: logP = 2.89; mass | 100 | 100 | efficacy in % [3]: 83%; efficacy in % [6]: 100% |
| O=C(/C=C/c1ccc(C(=O)NC2CCC2)c(C(F)(F)F)c1)NC(c1cccc(C(F)(F)F)c1)C(F)(F)F (stereo not shown) [Ia-61] | HPLC-MS: logP = 3.58; mass | 100 | 100 | efficacy in % [6]: 80% |
| CC(C)NC(=O)c1ccc(/C=C/C(=O)NC(c2cccc(C(F)(F)F)c2)C(F)(F)F)cc1C(F)(F)F (stereo not shown) [Ia-62] | HPLC-MS: logP = 3.41; mass | 100 | 100 | efficacy in % [6]: 80% |
| C#CCNC(=O)c1ccc(/C=C/C(=O)NC(c2cccc(C(F)(F)F)c2)C(F)(F)F)cc1C(F)(F)F (stereo not shown) [Ia-63] | HPLC-MS: logP = 3.36; mass | 100 | 80 | efficacy in % [6]: 90% |
| O=C(/C=C/c1ccc(C(=O)NC2CCOCC2)c(C(F)(F)F)c1)NC(c1cccc(C(F)(F)F)c1)C(F)(F)F (stereo not shown) [Ia-69] | HPLC-MS: logP = 3.12; mass | 100 | 100 | efficacy in % [6]: 90% |
| O=C(/C=C/c1ccc(C(=O)NC2(c3ccccn3)CC2)c(C(F)(F)F)c1)NC(c1cccc(C(F)(F)F)c1)C(F)(F)F (stereo not shown) [Ia-70] | HPLC-MS: logP = 3.23; mass | 100 | 100 | efficacy in % [3]: 83% |
| O=C(/C=C/c1ccc(C(=O)NCC2CC2)c(C(F)(F)F)c1)NC(c1cccc(C(F)(F)F)c1)C(F)(F)F (stereo not shown) [Ia-78] | HPLC-MS: logP = 3.52; mass | 100 | 90 | efficacy in % [6]: 90% |
| CC(F)(F)CNC(=O)c1ccc(/C=C/C(=O)NC(c2cccc(C(F)(F)F)c2)C(F)(F)F)cc1C(F)(F)F (stereo not shown) [Ia-79] | HPLC-MS: logP = 3.65; mass | 100 | 90 | efficacy in % [6]: 90% |
| O=C(/C=C/c1ccc(C(=O)Nc2ccccn2)c(Br)c1)NC(c1cccc(C(F)(F)F)c1)C(F)(F)F (stereo not shown) [Ia-92] | HPLC-MS: logP = 3.47 mass | 100 | 80 |  |
| CC(NC(=O)c1ccc(/C=C/C(=O)NC(c2cccc(C(F)(F)F)c2)C(F)(F)F)cc1Br)C1CC1 (stereo not shown) [Ia-93] | HPLC-MS: logP = 3.42 mass | 100 | 90 |  |
| CN(C(=O)c1ccc(/C=C/C(=O)NC(c2cccc(C(F)(F)F)c2)C(F)(F)F)cc1Br)C1CC1 (stereo not shown) [Ia-95] | HPLC-MS: logP = 3.58 mass | 100 | 80 |  |
| CCOC1(NC(=O)c2ccc(/C=C/C(=O)NC(c3cccc(C(F)(F)F)c3)C(F)(F)F)cc2Cl)CC1 (stereo not shown) [Ia-96] | HPLC-MS: logP = 3.47 mass | 100 | 80 |  |
| Cc1cc(/C=C/C(=O)NC(c2cccc(C(F)(F)F)c2)C(F)(F)F)ccc1C(=O)Nc1ccc(F)cc1 (stereo not shown) [Ia-99] | HPLC-MS: logP = 3.78 mass | 100 | 80 |  |
| O=C(/C=C/c1ccc(C(=O)Nc2ccncc2)c(Cl)c1)NC(c1cccc(C(F)(F)F)c1)C(F)(F)F (stereo not shown) [Ia-113] | HPLC-MS: logP = 1.92 mass | 100 | 100 |  |
| O=C(/C=C/c1ccc(C(=O)NC2CS(=O)(=O)C2)c(Cl)c1)NC(c1cccc(C(F)(F)F)c1)C(F)(F)F (stereo not shown) [Ia-166, 2-Chloro-N-(1,1-dioxidothietan-3-yl)-4-[(1E)-3-oxo-3-({2,2,2-trifluoro-1-[3-(trifluoromethyl)phenyl]ethyl}amino)prop-1-en-1-yl]benzamide] |  |  |  | pest or weed control at 100 g/ha ([1]; Phaedon cochleariae, foliar, application rate 100 g/ha, read-out: efficacy in %): 100%; chromatographic logP [2, 9]: 2.93 |
| O=C(/C=C/c1ccc(C(=O)NC2CC2)c(C(F)(F)F)c1)NC(c1cncc(C(F)(F)F)c1)C(F)(F)F (stereo not shown) [Ib-3] |  |  |  | efficacy in % [1]: 83%; logP [2, 10]: HPLC-MS: logP = 2.83; mass (m/z): |
| N#Cc1ccc2oc(C(=O)NC(c3cccc(C(F)(F)F)c3)C(F)(F)F)cc2c1 (stereo not shown) [Ic-1, 5-Cyano-N-{2,2,2-trifluoro-1-[3-(trifluoromethyl)phenyl]ethyl}-1-benzofuran-2-carboxamide] |  |  |  | pest or weed control at 500 g/ha [3]: 100%; pest or weed control at 500 g/ha [1, 8]: 100%; chromatographic logP [2, 9]: 3.63 |
| O=C(NC(c1cccc(C(F)(F)F)c1)C(F)(F)F)c1cc2cc(SC(F)(F)F)ccc2o1 (stereo not shown) [Ic-2] |  |  |  | efficacy in % [1]: 83%; logP [2, 10]: HPLC-MS: logP = 4.94; mass |
| CC(=O)NCc1ccc2oc(C(=O)NC(c3cccc(C(F)(F)F)c3)C(F)(F)F)cc2c1 (stereo not shown) [Ic-10, 5-(Acetamidomethyl)-N-{2,2,2-trifluoro-1-[3-(trifluoromethyl)phenyl]ethyl}-1-benzofuran-2-carboxamide] |  |  |  | pest or weed control at 500 g/ha [1, 8]: 100%; chromatographic logP [2, 9]: 2.8 |
| N#Cc1ccc2[nH]c(C(=O)NC(c3cc(Cl)cc(C(F)(F)F)c3)C(F)(F)F)cc2c1 (stereo not shown) [Ic-11] |  |  |  | efficacy in % [1]: 83%; logP [2, 10]: HPLC-MS: logP = 3.90; mass |
| O=C(NC(c1cccc(C(F)(F)F)c1)C(F)(F)F)c1cc2cc(Cl)c(C(=O)NC3CC3)cc2[nH]1 (stereo not shown) [Ic-18] |  | 100 | 80 | efficacy in % (fertile eggs laid) [7]: 100%; logP [2, 10]: HPLC-MS: logP = 2.98; mass |
| O=C(NC1CC1)c1ccc2cc(C(=O)NC(c3cccc(C(F)(F)F)c3)C(F)(F)F)oc2c1 (stereo not shown) [Ic-19, N^6-Cyclopropyl-N^2-{2,2,2-trifluoro-1-[3-(trifluoromethyl)phenyl]ethyl}-1-benzofuran-2,6-dicarboxamide] |  |  |  | pest or weed control at 500 g/ha [1, 8]: 100%; chromatographic logP [2, 9]: 3.25 |
| CC(F)(F)C(NC(=O)/C=C/c1ccc(C(=O)NC2CC2)c(Cl)c1)c1cccc(C(F)(F)F)c1 (stereo not shown) [Id-1, 2-Chloro-N-cyclopropyl-4-[(1E)-3-({2,2-difluoro-1-[3-(trifluoromethyl)phenyl]propyl}amino)-3-oxoprop-1-en-1-yl]benzamide] |  |  |  | pest or weed control at 500 g/ha [1, 8]: 100%; chromatographic logP [2, 9]: 3.04 |
